Where a SMILES comes first, the peptide text is derived from it.
Legend:
Calu-3 cells = settings: read-out: IC50 Calu-3 (+); HER2-overexpressing lung cancer cells, 72 h
Method: (§2) Cellular assays were performed using BT-474, SKBR-3, Calu-3, MCF-7, and MCF-10A cells (ATCC). Antiproliferative activity was measured by CellTiter-Glo®, [49] a luminescence-based cell viability assay. In a 96-well plate, 1 × 10^4 cells/well were seeded and incubated overnight at 37°C and 5% CO2. Stock solutions of peptidomimetics were prepared by dissolving 1.5 mg/mL of compounds in DMSO. Stock solution of the compounds were diluted using the serum-free medium to prepare solutions of different concentrations of compounds. Compounds in the medium were added to the wells in triplicate and incubated for 72 h. As controls, cells treated with 1% sodium dodecyl sulfate and 1% dimethyl sulfoxide were used. At the end of the experiment, CellTiter-Glo® reagent was added, and luminescence was measured by a plate reader. A dose response curve was generated using luminescence vs concentration of compounds and IC50 values were obtained using Prism® (GraphPad Software, La Jolla, CA). Experiments were repeated at least three times to obtain standard deviation values.

[1] = target: T1, HER2 protein on BT-474 cells (Homo sapiens, UniProt P04626); experiment: Competitive binding assay with FITC-compound 5; settings: 0.1 to 50 µM with 50 µM FITC-compound 5, BT-474 cells
T1 construct: incubated with HER2 expressing BT-474 cells lines along with fixed amount of FITC-compound 5; host or cells: BT-474
Method: BT-474 cell lines were coated on 96 well plates and after 24 hrs cells were washed. Varying amounts of compound 18 (0.1 to 50 µM) was incubated with HER2 expressing BT-474 cells lines along with fixed amount of FITC-compound 5 (50 µM). […] Readings were in triplicate. A graph of relative fluorescence with respect to concentration of compound 18 was plotted. As control fluorescence from FITC-compound 5 and cells without any treatment were used.

MCF-7 cells = experiment: Antiproliferative activity (CellTiter-Glo); type: cell-based
Source text: (§1) Erlotinib was from Sigma (Sigma-Aldrich Chemie GmbH).

[2] = tested on: MCF-10A normal breast epithelial cell line; experiment: Antiproliferative activity (CellTiter-Glo); type: cell-based
Source text: as §1

[3] = target: T2, HER2:HER3 dimerization in transfected U2OS cells (Homo sapiens, UniProt P04626); experiment: Enzyme fragment complementation (PathHunter) assay; type: cell-based; settings: in the presence of 0.3 µM NRG1
T2 construct: host or cells: U2OS
Method: A Pathhunter assay kit was obtained from DiscoverX, and enzyme fragment complementation assay was carried out. U2OS cells transfected with HER3:HER2 were used for the assay. After cells were attached to the wells, they were incubated with compound 18 and controls at different concentration in the presence of neuregulin-1 (NRG-1) at 0.3 µM concentration. After 24 h of incubation, reagents were added, and luminescence was measured and compared with a control without any compound. A plot of luminescence versus concentration was obtained to measure the dimerization of HER3:HER2 and its inhibition by compound 18.

[4] = target: T3, HER2:HER3 heterodimerization in tumor sections (Homo sapiens, UniProt P04626); experiment: PLA on xenograft tumor sections; type: in vivo, athymic nude mice
T3 construct: from tissue; host or cells: BT-474 xenograft tumours grown in athymic nude mice
Method: Western blot and PLA assay were carried out on tumor sections as described before. Immunoblot analysis was performed to evaluate the levels of total HER2 and phosphorylated HER2. Tumor sections were deparaffinized using xylene and rehydrated with decreasing concentrations of ethanol. Antigen retrieval on the microsections of the breast tumors was done in a steaming sodium citrate buffer (10 mM, 0.05% Tween-20, pH 6.0) for 5 min. The tumor sections were then used to analyze inhibition of HER2:HER3 dimerization using PLA.

SKBR-3 cells = experiment: TUNEL assay; type: cell-based; settings: 5 and 10 µM
Method: Ten thousand SKBR-3 cells were added to each well of Lab-Tek® 8-chamber slides and incubated overnight for cell attachment. […] Cells were washed twice with cold PBS. Cell fixation was achieved using 10% buffered formalin followed by permeabilization of membranes using 0.2% Triton X-100 in PBS at room temperature. 100 µL of rTdT reaction mix containing biotinylated nucleotide mix was added. The slide was placed in a humidity chamber and incubated for 60 min at 37°C. With the addition of dilute saline-sodium citrate (SSC) solution (20X provided with the kit diluted to 2X), the reaction was stopped. Three PBS washes were made to ensure the removal of remaining unincorporated biotinylated nucleotides on the slide. Treatment with 0.3% hydrogen peroxide was done to block the endogenous peroxidases in the cells. The slide was incubated for 30 min at room temperature with dilute streptavidin HRP solution (1:500 in PBS). Diaminobenzidine (DAB) was added to stain the slide. After drying, DAPI was used to counterstain the nuclei, and images were obtained using a Nikon Eclipse TS100. The number of cells that had undergone apoptosis was counted and quantified.

[5] = tested on: NCI-H1975 cells (EGFR L858R/T790M)
Method: Antiproliferative activity was measured by CellTiter-Glo®, [49] a luminescence-based cell viability assay. In a 96-well plate, 1 × 10^4 cells/well were seeded and incubated overnight at 37°C and 5% CO2. Stock solutions of peptidomimetics were prepared by dissolving 1.5 mg/mL of compounds in DMSO. Stock solution of the compounds were diluted using the serum-free medium to prepare solutions of different concentrations of compounds. […] As controls, cells treated with 1% sodium dodecyl sulfate and 1% dimethyl sulfoxide were used. At the end of the experiment, CellTiter-Glo® reagent was added, and luminescence was measured by a plate reader. A dose response curve was generated using luminescence vs concentration of compounds and IC50 values were obtained using Prism® (GraphPad Software, La Jolla, CA). Experiments were repeated at least three times to obtain standard deviation values.

SKOV-3 cells = settings: read-out: IC50 SKOV-3(+); HER2-overexpressing ovarian cancer cells, 72 h
Method: as §2

[6] = target: T4, HER2:HER3 heterodimer in SKBR-3 cells (Homo sapiens, UniProt P04626); experiment: Proximity ligation assay (PLA); type: cell-based; settings: 0.5 and 1 µM
T4 construct: indicating HER2:HER3 dimerization in SKBR-3 cells; host or cells: SKBR-3
Method: Proximity ligation assay was performed as described previously. […] Fixed cells were used for PLA assay. Cells were incubated with primary antibodies for 24 h and washed, and secondary antibodies PLA+ and PLA− were added. After incubation and washing, PLA detection reagent was added, and the cells were covered with a glass plate after mounting medium was added. Slides were viewed using an inverted microscope and a multiphoton microscope. Images were obtained at 40 and 60X.

BT-474 breast tumors = experiment: Xenograft model of breast cancer; type: in vivo, athymic nude mice; settings: BT-474 xenograft, 19 days; 18 and 9 4 mg/kg twice a week intratumor; lapatinib 10 mg/kg once a week i.p.
Method: All animals were handled according to the approved protocol from IACUC at the University of Louisiana at Monroe. Athymic nude mice (Foxn1nu/Foxn1+, female, 4–5 weeks) were purchased from Harlan Laboratories (Indianapolis, IN) and maintained in the ULM School of Pharmacy vivarium. After acclimatization of animals to the local environment, estrogen (17β-estradiol) pellets (0.72 mg, 90-day release) were implanted subcutaneously in the mice, under anesthesia. Tumors were induced in mice as described previously. Orthotopic injection of about three-million BT-474 cells suspended in the serum-free RPMI-1640 medium was done at the second left mammary fat pad. Mice were observed every day for tumor formation, and the tumor diameter was measured with calipers, and the tumor volume was calculated. When a tumor diameter of 3 mm was achieved, mice were randomly assigned to four groups of six. These groups contain negative control (vehicle control), positive control (lapatinib), and two treatment groups (compound 9 and 18). The mice were treated for 19 days. Compound 18 was administered near the base of the tumor at a dose of 4 mg/kg twice a week. Control groups received intratumor saline injections twice a week, and lapatinib was administered at 10 mg/kg once a week by intraperitoneal injection. The marker to end the experiments was based on tumor doubling time rather than tumor volume. Since tumor doubling time was 4 times in 19 days, experiments were stopped on the 19th day. Tumor-bearing mice were sacrificed, and three tumors per group were harvested and maintained at –80°C and the remaining three tumors were fixed in paraffin blocks. Microsections (5 µm) of paraffin fixed tumors were stained with hemotoxylin and eosin (H&E) and observed for necrosis by a pathologist. All data are presented as the mean ± SE. Statistical differences were evaluated by Mann-Whitney U test as well as one-way ANOVA analysis of data from different groups, and the criterion for statistical significance was p < 0.05.

T3 sequence (P04626 23-1255, one chain of several): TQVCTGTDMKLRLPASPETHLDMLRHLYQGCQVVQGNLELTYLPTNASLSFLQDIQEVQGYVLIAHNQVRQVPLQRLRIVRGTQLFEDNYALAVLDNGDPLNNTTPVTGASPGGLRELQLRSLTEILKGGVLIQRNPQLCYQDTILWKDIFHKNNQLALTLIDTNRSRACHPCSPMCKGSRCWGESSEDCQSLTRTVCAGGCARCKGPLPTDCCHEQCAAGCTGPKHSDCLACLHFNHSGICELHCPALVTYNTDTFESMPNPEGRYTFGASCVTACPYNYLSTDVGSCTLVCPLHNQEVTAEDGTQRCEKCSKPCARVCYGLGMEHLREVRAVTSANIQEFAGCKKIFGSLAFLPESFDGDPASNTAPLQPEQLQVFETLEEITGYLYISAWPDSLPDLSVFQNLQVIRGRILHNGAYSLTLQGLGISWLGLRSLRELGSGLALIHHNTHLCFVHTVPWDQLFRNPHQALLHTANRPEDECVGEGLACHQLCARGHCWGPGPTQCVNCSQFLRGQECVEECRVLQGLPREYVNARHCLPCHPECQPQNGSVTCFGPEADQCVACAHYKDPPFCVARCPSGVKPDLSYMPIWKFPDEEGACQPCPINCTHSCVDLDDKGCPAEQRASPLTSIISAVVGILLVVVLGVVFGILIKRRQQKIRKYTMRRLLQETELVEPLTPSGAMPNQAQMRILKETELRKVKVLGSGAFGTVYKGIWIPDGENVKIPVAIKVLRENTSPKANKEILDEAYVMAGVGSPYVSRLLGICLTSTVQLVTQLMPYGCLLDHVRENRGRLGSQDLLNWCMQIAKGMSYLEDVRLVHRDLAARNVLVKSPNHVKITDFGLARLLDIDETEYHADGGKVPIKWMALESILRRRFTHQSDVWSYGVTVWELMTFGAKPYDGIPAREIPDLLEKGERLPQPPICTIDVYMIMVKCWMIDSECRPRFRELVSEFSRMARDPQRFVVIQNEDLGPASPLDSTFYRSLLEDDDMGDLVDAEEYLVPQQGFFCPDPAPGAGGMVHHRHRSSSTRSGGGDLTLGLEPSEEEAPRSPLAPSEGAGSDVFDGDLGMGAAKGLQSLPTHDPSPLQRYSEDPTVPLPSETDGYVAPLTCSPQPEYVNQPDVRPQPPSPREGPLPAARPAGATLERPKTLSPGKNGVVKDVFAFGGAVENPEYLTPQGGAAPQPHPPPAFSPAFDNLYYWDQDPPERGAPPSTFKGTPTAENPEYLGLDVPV
T2 sequence (P04626 23-1255): as the sequence (P04626 23-1255, one chain of several) above
T1 sequence (P04626 23-1255): as the sequence (P04626 23-1255, one chain of several) above
T4 sequence (P04626 23-1255, one chain of several): as above

N=C(N)NCCC[C@@H]1NC(=O)[C@H]2CCCN2C(=O)[C@@H]2CCCN2C(=O)[C@H](CCCNC(=N)N)NC(=O)C[C@H](c2cccc3ccccc23)NC(=O)[C@H](Cc2ccccc2)NC(=O)[C@H](CC(=O)O)NC(=O)[C@H](CC(=O)O)NC(=O)[C@H](Cc2ccccc2)NC(=O)C[C@H](c2cccc3ccccc23)NC1=O [compound 18, Cyclo(1,10)P^1p^2R^3(R-Anapa)^4F^5D^6D^7F^8(R-Anapa)^9R^10] (HELM PEPTIDE1{P.[dP].R.[O=C(C[C@@H](N[*:1])c1cccc2ccccc12)[*:2]].F.D.D.F.[O=C(C[C@@H](N[*:1])c1cccc2ccccc12)[*:2]].R}$PEPTIDE1,PEPTIDE1,1:R1-10:R2$$$V2.0)
IC50 (Calu-3 cells): 18 ± 13 nM | Competition with FITC-compound 5 (cell fluorescence) [1]: decrease in the fluorescence intensity of cells | Synergistic effect with erlotinib (isobologram) (MCF-7 cells; MCF-7, compound 18 plus erlotinib): no synergistic effect | IC50 (MCF-7 cells; breast cancer cells that do not overexpress HER2, 72 h): > 50000 nM | Activity in MCF-10A relative to Calu-3 (times less) ([2]; IC50 MCF-10A vs Calu-3): ~2000 times | Activity in MCF-10A relative to SKBR-3 (times less) ([2]; IC50 MCF-10A vs SKBR-3): ~200 times | Inhibition of HER2:HER3 dimerization (PathHunter) [3]: dimerization of HER2:HER3 is inhibited in a concentration-dependent manner | HER2:HER3 heterodimerization in tumor sections (PLA) [4]: diminished red fluorescence signals | Apoptosis (TUNEL staining) (SKBR-3 cells): positive staining for apoptosis | Synergistic effect with erlotinib (isobologram) ([5]; NCI-H1975, compound 18 plus erlotinib): synergistic effect | IC50 ([5]; read-out: IC50 in NCI-H1975, EGFR L858R/T790M lung cancer cell line): 4850 nM | IC50 (SKOV-3 cells): 853 ± 102 nM | Inhibition of HER2:HER3 heterodimerization (PLA) [6]: inhibits heterodimerization in a concentration-dependent manner | Tumor growth versus vehicle (BT-474 breast tumors): delay in tumor growth and tumor size

Reference: article PMC5650337, “A peptidomimetic with a chiral switch is an inhibitor of epidermal growth factor receptor heterodimerization” (Oncotarget, 2017)
